Results published in paper PMC11859928, “Design, Synthesis, and Antiproliferative Activity of Novel Indole/1,2,4-Triazole Hybrids as Tubulin Polymerization Inhibitors” (Pharmaceuticals, 2025).
Where two headings read alike, the source gives them in different places.

Columns and labels:
[1] = test system: OVCAR-3; test: NCI one-dose assay; assay type: cell-based; settings: Homo sapiens, OVCAR-3, Ovarian cancer, read-out: Cell growth inhibition %
[2] = test system: MDA-MB-435; test: NCI one-dose assay; assay type: cell-based; settings: Homo sapiens, MDA-MB-435, Melanoma, read-out: Cell growth inhibition %
[3] = test system: SK-MEL-28; test: NCI one-dose assay; assay type: cell-based; settings: Homo sapiens, SK-MEL-28, Melanoma, read-out: Cell growth inhibition %
[4] = test system: SNB-19; test: NCI one-dose assay; assay type: cell-based; settings: Homo sapiens, SNB-19, CNS cancer, read-out: Cell growth inhibition %
[5] = test system: U251; test: NCI one-dose assay; assay type: cell-based; settings: Homo sapiens, U-251, U251, CNS cancer, read-out: Cell growth inhibition %
[6] = test system: SR; test: NCI one-dose assay; assay type: cell-based; settings: Homo sapiens, Leukemia, read-out: Cell growth inhibition %
[7] = test system: SF-295; test: NCI one-dose assay; assay type: cell-based; settings: Homo sapiens, SF-295, CNS cancer, read-out: Cell growth inhibition %
[8] = test system: NCI-H522; test: NCI one-dose assay; assay type: cell-based; settings: Homo sapiens, NCI-H522, Non-small cell lung cancer, read-out: Cell growth inhibition %
[9] = test system: EKVX; test: NCI one-dose assay; assay type: cell-based; settings: Homo sapiens, Non-small cell lung cancer, read-out: Cell growth inhibition %
[10] = test system: NCI-H226; test: NCI one-dose assay; assay type: cell-based; settings: Homo sapiens, NCI-H226, Non-small cell lung cancer, read-out: Cell growth inhibition %
[11] = test system: HS 578 T; test: NCI one-dose assay; assay type: cell-based; settings: Homo sapiens, Breast cancer, read-out: Cell growth inhibition %
[12] = test system: SF-539; test: NCI one-dose assay; assay type: cell-based; settings: Homo sapiens, SF-539, CNS cancer, read-out: Cell growth inhibition %
[13] = test system: SF-268; test: NCI one-dose assay; assay type: cell-based; settings: Homo sapiens, SF-268, CNS cancer, read-out: Cell growth inhibition %
[14] = test system: MCF7; test: NCI one-dose assay; assay type: cell-based; settings: Homo sapiens, MCF7, Breast cancer, read-out: Cell growth inhibition %
[15] = test system: T-47D; test: NCI one-dose assay; assay type: cell-based; settings: Homo sapiens, T47D, Breast cancer, read-out: Cell growth inhibition %
[16] = test system: LOX IMVI; test: NCI one-dose assay; assay type: cell-based; settings: Homo sapiens, Melanoma, read-out: Cell growth inhibition %
[17] = test system: A549/ATCC; test: NCI one-dose assay; assay type: cell-based; settings: Homo sapiens, Non-small cell lung cancer, read-out: Cell growth inhibition %
[18] = test system: IGROV1; test: NCI one-dose assay; assay type: cell-based; settings: Homo sapiens, IGROV-1, IGROV1, Ovarian cancer, read-out: Cell growth inhibition %
[19] = test system: HOP-62; test: NCI one-dose assay; assay type: cell-based; settings: Homo sapiens, HOP-62, Non-small cell lung cancer, read-out: Cell growth inhibition %
[20] = test system: NCI-H522; test: NCI five-dose assay; assay type: cell-based, human; settings: NCI-H522, Non-small cell lung cancer; for CC50 / GI50: Homo sapiens; for CC50: 48 h, read-out: LC50 (the source's name); for GI50: read-out: GI50 Conc. per Cell Lines
[21] = test system: SK-MEL-5; test: NCI five-dose assay; assay type: cell-based, human; settings: SK-MEL-5, Melanoma; for CC50 / GI50: Homo sapiens; for CC50: 48 h, read-out: LC50 (the source's name); for GI50: read-out: GI50 Conc. per Cell Lines
[22] = test system: MCF7; test: NCI five-dose assay; assay type: cell-based, human; settings: MCF7, Breast cancer; for LC50 / GI50: Homo sapiens; for LC50: 48 h; for GI50: read-out: GI50 Conc. per Cell Lines
[23] = test system: NCI 60 cell lines; test: NCI one-dose assay, full panel; assay type: cell-based, human; settings: Homo sapiens, 60 cell, read-out: cell growth inhibition percentage, range
Protocol: (§1) The National Cancer Institute (NCI), Bethesda, USA, selected the final compounds 6a–j and 7a–j for in vitro anticancer screening. An initial in vitro single-dose anticancer experiment was performed with the entire NCI 60 cell lines derived from nine tumor subpanel cancer cell lines. The results for each compound were illustrated as a mean graph showing the percentage growth of treated cells compared to untreated control cells (see Supplementary Materials).
(§2) The NCI anticancer screening process has been thoroughly detailed. The Drug Evaluation Branch of the National Cancer Institute in Bethesda, […], USA, established the procedure and conducted the anticancer assay on 60 human tumor cell lines from nine neoplastic cancers.

[24] = test system: HL-60(TB); test: NCI five-dose assay; assay type: cell-based, human; settings: Leukemia; for GI50: read-out: GI50 Conc. per Cell Lines
[25] = test system: PC-3; test: NCI five-dose assay; assay type: cell-based, human; settings: PC-3, Prostate cancer; for GI50: read-out: GI50 Conc. per Cell Lines
[26] = test system: CNS cancer subpanel; test: NCI five-dose assay, subpanel mean; assay type: cell-based, human; settings: for GI50 Selectivity Ratio (MID a/MID b): CNS cancer subpanel; for GI50: Homo sapiens, average sensitivity of all cell lines of the CNS cancer subpanel, read-out: GI50 Subpanel MID b
[27] = test system: UO-31; test: NCI one-dose assay; assay type: cell-based, human; settings: Homo sapiens, UO-31, UO-31, Renal cancer, read-out: Cell growth inhibition %
Protocol: as §1, §2

[28] = test system: 786-0; test: NCI one-dose assay; assay type: cell-based, human; settings: Homo sapiens, 786-0, 786-0, Renal cancer, read-out: Cell growth inhibition %
Protocol: as §1, §2

[29] = test system: HOP-92; test: NCI one-dose assay; assay type: cell-based, human; settings: Homo sapiens, HOP-92, HOP-92, Non-small cell lung cancer, read-out: Cell growth inhibition %
Protocol: as §1, §2

[30] = test system: A498; test: NCI one-dose assay; assay type: cell-based, human; settings: Homo sapiens, A498, A498, Renal cancer, read-out: Cell growth inhibition %
Protocol: as §1, §2

[31] = Homo sapiens, 48 h, read-out: LC50 (the source's name)

Work on `Cc1ccc(C(=O)CSc2nnc(-c3c[nH]c4ccccc34)n2-c2ccccc2)cc1` [Compound 6h, 2-((5-(1H-Indol-3-yl)-4-phenyl-4H-1,2,4-triazol-3-yl)thio)-1-(p-tolyl)ethenone] yielded an inhibition at 10 µM [1] of 34.8%, an inhibition at 10 µM [2] of 61.4% and an inhibition at 10 µM [3] of 51%. The inhibition at 10 µM [4] was 80.3%, the inhibition at 10 µM [5] was 90.2% and the inhibition at 10 µM [6] was 47%. The inhibition at 10 µM [7] was 88.9%, the inhibition at 10 µM [8] was 98.6% and the inhibition at 10 µM [9] was 47%. For the same molecule, the inhibition at 10 µM [10] was 141%, the inhibition at 10 µM [11] was 101% and the inhibition at 10 µM [12] was 77.9%. For the same molecule, the inhibition at 10 µM [13] was 70.3%, the inhibition at 10 µM [14] was 87.5% and the inhibition at 10 µM [15] was 53.3%. It also gave an inhibition at 10 µM [16] of 120%, an inhibition at 10 µM [17] of 46.7% and an inhibition at 10 µM [18] of 75.8%. The inhibition at 10 µM [19] was 92.2%, the CC50 [20] was greater than 100 µM and the GI50 [20] was 16.3 µM. For the same molecule, the “TGI Conc. per Cell Lines” value [20] was 43.70 µM, the CC50 [21] was 92.4 µM and the GI50 [21] was 16.5 µM. The “TGI Conc. per Cell Lines” value [21] was 39.10 µM, the LC50 [22] was 98.1 µM and the GI50 [22] was 15.7 µM. The “TGI Conc. per Cell Lines” value [22] was 39.20 µM, the inhibition at 10 µM ([23]; ten cancer cell lines with complete cell death) was 101 to 141% and the inhibition at 10 µM ([23]; twenty-five cell lines) was 67 to 99%. For the same molecule, the CC50 [24, 31] was greater than 100 µM, the GI50 ([24]; Homo sapiens) was 30.8 µM and the “TGI Conc. per Cell Lines” value [24] was “˃100 µM”. For the same molecule, the CC50 [25, 31] was greater than 100 µM, the GI50 ([25]; Homo sapiens) was 12.4 µM and the “TGI Conc. per Cell Lines” value [25] was 37.80 µM. The “GI50 Selectivity Ratio (MID a/MID b)” value [26] was 1.11, the GI50 [26] was 17.4 µM and the inhibition at 10 µM [27] was 69.7%. The inhibition at 10 µM [28] was 135%, the inhibition at 10 µM [29] was 108% and the inhibition at 10 µM [30] was 14.2%.
For `O/N=C(\CSc1nnc(-c2c[nH]c3ccccc23)n1-c1ccccc1)c1ccccc1` [Compound 7f, (Z)-2-((5-(1H-Indol-3-yl)-4-phenyl-4H-1,2,4-triazol-3-yl)thio)-1-phenylethanone Oxime], the inhibition at 10 µM [1] was 45%, the inhibition at 10 µM [2] was 54.9% and the inhibition at 10 µM [3] was 45.5%. For the same molecule, the inhibition at 10 µM [4] was 48.5%, the inhibition at 10 µM [5] was 46.2% and the inhibition at 10 µM [6] was 43.8%. For the same molecule, the inhibition at 10 µM [7] was 60.8%, the inhibition at 10 µM [8] was 46.2% and the inhibition at 10 µM [9] was 73.6%. It also gave an inhibition at 10 µM [10] of 56.7%, an inhibition at 10 µM [11] of 33.3% and an inhibition at 10 µM [12] of 22.9%. It also gave an inhibition at 10 µM [13] of 23.1%, an inhibition at 10 µM [14] of 58.9% and an inhibition at 10 µM [15] of 80.2%. The inhibition at 10 µM [16] was 59%, the inhibition at 10 µM [17] was 46.9% and the inhibition at 10 µM [18] was 41.8%. The inhibition at 10 µM [19] was 15.4%, the inhibition at 10 µM [27] was 71.6% and the inhibition at 10 µM [28] was 17.9%. The inhibition at 10 µM [29] was 82.7% and the inhibition at 10 µM [30] was 14.8%.
`COc1ccc(/C(CSc2nnc(-c3c[nH]c4ccccc34)n2-c2ccccc2)=N/O)cc1` [Compound 7g, (Z)-2-((5-(1H-Indol-3-yl)-4-phenyl-4H-1,2,4-triazol-3-yl)thio)-1-(4-methoxyphenyl) Ethanone Oxime] was tested, and the inhibition at 10 µM [1] was 69.5%, the inhibition at 10 µM [2] was 105% and the inhibition at 10 µM [3] was 62.6%. It also gave an inhibition at 10 µM [4] of 59.7%, an inhibition at 10 µM [5] of 60.6% and an inhibition at 10 µM [6] of 89.1%. For the same molecule, the inhibition at 10 µM [7] was 79%, the inhibition at 10 µM [8] was 63.5% and the inhibition at 10 µM [9] was 84.9%. For the same molecule, the inhibition at 10 µM [10] was 81.8%, the inhibition at 10 µM [11] was 61.2% and the inhibition at 10 µM [12] was 42.7%. It also gave an inhibition at 10 µM [13] of 51.5%, an inhibition at 10 µM [14] of 85.5% and an inhibition at 10 µM [15] of 89.7%. The inhibition at 10 µM [16] was 178%, the inhibition at 10 µM [17] was 65.8% and the inhibition at 10 µM [18] was 56.9%. It also gave an inhibition at 10 µM [19] of 55%, an inhibition at 10 µM [27] of 81.8% and an inhibition at 10 µM [28] of 40.3%. It also gave an inhibition at 10 µM [29] of 71.8% and an inhibition at 10 µM [30] of 30.2%.
Molecule `Cc1ccc(/C(CSc2nnc(-c3c[nH]c4ccccc34)n2-c2ccccc2)=N/O)cc1` [Compound 7h, (Z)-2-((5-(1H-Indol-3-yl)-4-phenyl-4H-1,2,4-triazol-3-yl)thio)-1-(p-tolyl)ethanone Oxime] has an inhibition at 10 µM [1] of 85.3%, an inhibition at 10 µM [2] of 200% and an inhibition at 10 µM [3] of 37.5%. It also gave an inhibition at 10 µM [4] of 119%, an inhibition at 10 µM [5] of 89.6% and an inhibition at 10 µM [6] of 90.2%. For the same molecule, the inhibition at 10 µM [7] was 150%, the inhibition at 10 µM [8] was 76.2% and the inhibition at 10 µM [9] was 71.8%. It also gave an inhibition at 10 µM [10] of 141%, an inhibition at 10 µM [11] of 154% and an inhibition at 10 µM [12] of 89.9%. For the same molecule, the inhibition at 10 µM [13] was 160%, the inhibition at 10 µM [14] was 155% and the inhibition at 10 µM [15] was 147%. The inhibition at 10 µM [16] was 188%, the inhibition at 10 µM [17] was 81.6% and the inhibition at 10 µM [18] was 162%. The inhibition at 10 µM [19] was 157%, the CC50 [20] was greater than 100 µM and the GI50 [20] was 2.24 µM. The “TGI Conc. per Cell Lines” value [20] was 6.04 µM, the CC50 [21] was greater than 100 µM and the GI50 [21] was 4.76 µM. For the same molecule, the “TGI Conc. per Cell Lines” value [21] was 48.1 µM, the LC50 [22] was greater than 100 µM and the GI50 [22] was 2.42 µM. For the same molecule, the “TGI Conc. per Cell Lines” value [22] was 7.01 µM, the inhibition at 10 µM ([23]; sixteen cell lines) was 72 to 98% and the inhibition at 10 µM ([23]; thirty-six cell lines with complete cell death) was 106 to 200%. The GI50 ([24]; Homo sapiens) was 1.92 µM, the “TGI Conc. per Cell Lines” value [24] was 3.96 µM and the GI50 ([25]; Homo sapiens) was 1.77 µM. The “TGI Conc. per Cell Lines” value [25] was 3.74 µM, the “GI50 Selectivity Ratio (MID a/MID b)” value [26] was 1.04 and the GI50 [26] was 2.86 µM. For the same molecule, the inhibition at 10 µM [27] was 93.5%, the inhibition at 10 µM [28] was 97.8% and the inhibition at 10 µM [29] was 106%. For the same molecule, the inhibition at 10 µM [30] was 8.13%.
